Values quoted from earlier work as cited in patent US20210169839A1, “PEDIATRIC IMMEDIATE-RELEASE FORMULATION OF THE POTASSIUM CHANNEL OPENER EZOGABINE” (Xenon Pharmaceuticals Inc., priority 2019, published 2021).
Like-named read-outs stand apart in the source and are kept apart here.

Assays:
rodent seizure models = conditions: battery of rodent seizure models
KCNQ2-DEE [1] = system: KCNQ2-DEE
KCNQ2-DEE [2] = system: KCNQ2-DEE; remark: listed apart in the source

CCOC(=O)Nc1ccc(NCc2ccc(F)cc2)cc1N [Ezogabine, 2-amino-4-(4-fluorobenzylamino)-1-ethoxycarbonylaminobenzene]
anti-convulsant activity (rodent seizure models): broad spectrum activity | serious adverse effects (KCNQ2-DEE [1]; case report of 11 patients): No serious adverse effects were observed | improvement in seizures and/or development (KCNQ2-DEE [1]; infants treated before six months of age): three of the four | improvement in seizures and/or development (KCNQ2-DEE [1]; patients treated later than six months of age): two of the seven | improvements in development or cognition (KCNQ2-DEE [2]; eight children with KCNQ2-DEE): all eight patients | Sustained improvement in seizure frequency (KCNQ2-DEE [2]; patients with at least weekly seizures): five of the six
